Reference: US20220057378A1, “MICROBIAL MICROFLUIDIC BIOSENSOR” (priority 2015, published 2022)

Legend:
As3 = experiment: microplate specificity test with on- and off-target heavy metals (fluorescence); assay type: cell-based, E. coli; conditions: on-target = 1, no-toxin control = 0; As 1.3, Cd 0.44, Cr(VI) 2, Cu 20, Pb 1, Hg 0.1, Co 20, Fe 500, Ni 1.7, Zn 7.6 μM
From the text: Each column represents the fluorescence response of a strain to the on-target metal (normalized to “1”) and all off-target metals, where “0” represents the unchanged response for the no-toxin control.
Although the ability to sense cobalt, iron, nickel, and zinc is of secondary importance, these heavy metals were included as potential off-target inducers because they may be present in the natural water supply under test. […] This combinatorial logic was implemented in algorithms.

E. coli MG1655/As3 = experiment: on-chip time-lapse induction of promoter construct (GFP, gill chip); assay type: cell-based
From the text: The on-chip time-lapse induction response of each promoter construct in this table can be seen in FIG. 36. In each figure panel, the moment of toxin introduction is represented as a step in the red trace.

E. coli MG1655/Cd1 [1] = experiment: as above; assay type: cell-based
Description: (§3) For on-chip induction experiments, strains were loaded into the device and grown in M9 minimal medium with 0.4% glucose and 50 μg/ml spectinomycin (for plasmid maintenance) for 2 days in the absence of toxin. Cells were imaged under 4× brightfield and GFP fluorescence filters on an Olympus IX-81 microscope every 2 min for 6 h under these non-inducing conditions to generate a fluorescence baseline. The toxin was then introduced to induce GFP expression and the cells were imaged every 2 min for 6 h.
(§4) To determine the response to toxin induction, the raw fluorescence images before and after induction were compared. The image stacks were analyzed using a custom ImageJ script to measure the average GFP signal over time for each cell trap. Any linear trend in the uninduced fluorescence data due to cell growth was subtracted from the data. In this manner, the dynamic signal-to-noise ratio (SNR) was calculated as: (current fluorescence−mean uninduced fluorescence)/(standard deviation of uninduced fluorescence).
(§5) This microfluidic platform was then used to measure the response of several toxin responsive promoter constructs identified from the literature and synthesized by Transcriptic. […] Note that SNR values greater than 2 indicate a significant response.

GFP sensor strains = experiment: SVM classification of GFP sensor responses (toxin / no toxin); assay type: cell-based; conditions: from classification accuracy and ROC curves
From the text: Computational models to determine the threshold of detection for specific sensors based on models of experimental GFP responses. We used machine learning techniques to determine the relationships between the GFP output signal and the presence of a toxin. We have created a database containing the collected sensor response data. We have quantified the GFP threshold of detection for each sensor construct. We have constructed Receiver Operating Characteristic (ROC) curves for each sensor to achieve robust sensing. We constructed machine learning models capable of inferring the relationships between the GFP sensor responses and the presence or absence of a toxin at a given concentration. The algorithm learns these relationships from a set of training samples (GFP sensor responses) defined by the set of experimental conditions from which they were generated. The aim of the algorithm is to provide a general method capable of determining the experimental conditions associated with GFP sensor responses through the use of historical data. Specifically, we have built classification models based on Support Vector Machines (SVMs), which is one of the most popular classifiers due to its excellent performance in many contexts and its solid mathematical basis (1). For each toxin and concentration, we solved a binary classification problem in which the positive class represents the presence of the toxin in water and the negative class is associated with clean environments. Patterns were constructed with features containing GFP sensor responses at various timestamps to capture the temporal dynamics of the GFP signal. The optimal meta-parameters of the SVM classifier were determined by applying a 5-crossvalidation during the training phase (2). In order to have a reliable estimate of the performance of the model when deployed in real environments, we measured its performance over a set of samples (test patterns) not seen during the training phase. The SVM's performance was determined by the percentage of test samples correctly labeled as toxin/no toxin (classification accuracy). 80% of samples were used for training the SVM models and the remaining 20% of samples was used to evaluate their effectiveness. We generated 20 random training/test partitions to have an estimate of performance independent of the data partition.
Specifically, we have built classification models based on Support Vector Machines (SVMs), which is one of the most popular classifiers due to its excellent performance in many contexts and its solid mathematical basis. For each toxin and concentration, we solved a binary classification problem in which the positive class represents the presence of the toxin in water and the negative class is associated with clean environments. Patterns were constructed with features containing GFP sensor responses at various timestamps to capture the temporal dynamics of the GFP signal. The optimal meta-parameters of the SVM classifier were determined by applying a 5-crossvalidation during the training phase.
In order to have a reliable estimate of the performance of the model when deployed in real environments, we measured its performance over a set of samples (test patterns) not seen during the training phase. The SVM's performance was determined by the percentage of test samples correctly labeled as toxin/no toxin (classification accuracy). 80% of samples were used for training the SVM models and the remaining 20% of samples was used to evaluate their effectiveness. We generated 20 random training/test partitions based on data collected in single-strain chips (no crosstalk data) to have an estimate of performance.

E. coli MG1655/Hg3 [2] = experiment: 8-strain chip induction (fluorescence induction ratio); assay type: cell-based; conditions: toxin at t=0, pure water at t=2 hours; cadmium 0.05, mercury 0.2 μM
From the text: (§1) An overview of the sensor can be seen in FIG. 39. In order to acquire the large amount of data required to successfully train the classifier, five replicates of the fully self-contained device prototype were built, in which the microfluidic devices are mounted and imaged using custom-designed optics as shown in some embodiments herein (Milestone 6.9). The majority of the data for this project was acquired using a novel microfluidic device capable of housing eight different bacterial strains that receive media from a shared source. […] The design was expanded to house 18 strains and we have begun taking data with this new chip to provide larger datasets to the classifier. A detailed CAD drawing of this device can be seen in FIG. 56. The 18 cell trapping regions are vacuum-loaded from 18 downstream fluidic ports. Long, serpentine channels upstream of the trapping regions serve as fluidic buffer zones to prevent the cross-contamination of strains while loading. The toxin concentration is controlled dynamically by a peristaltic pump that mixes a water/toxin combination (representing the source water stream) with a concentrated medium stock.
(§2) In each panel, the time series data for the “on-target” responding strain is plotted in bold.

E. coli MG1655/Cd1 [3] = experiment: as above; assay type: cell-based; conditions: toxin at t=0, pure water at t=2 hours; cadmium 0.05, lead 1.8 μM
From the text: as §1, §2

[4] = test system: E. coli MG1655 containing pCueCopA; experiment: on-chip step-induction of copper-sensing plasmid pCueCopA (GFP); assay type: cell-based; conditions: pCueCopA in E. coli MG1655, LB medium
Description: Second, induction of pCue-CopA, a copper-sensing plasmid, was tested in the microfluidic device. A recombinant strain of E. coli MG1655 containing pCueCopA was vacuum-loaded into a microfluidic device, grown to confluence, and step-induced with copper sulfate (CuSO4) in LB medium. Images were collected using an Etaluma LumaScope microscope with 20× objective magnification. Step induction was again performed using the “Dial-A-Wave” automated flow control system. The cells were sequentially exposed to copper concentrations of 0 μM, 25 μM, 52 μM, 77 μM, and 99 μM in 6-h windows.

E. coli MG1655/Cu1 = experiment: 8-strain chip induction (fluorescence induction ratio); assay type: cell-based; conditions: toxin at t=0, pure water at t=2 hours; copper 5, lead 1.8 μM
From the text: as §1, §2

E. coli MG1655/Hg3 [5] = test system: E. coli MG1655/Hg3
Description: as §3, §4, §5

Row | Molecule | fluorescence response of strain As3 (on-target arsenic) (As3) | threshold of detection (GFP sensor strains) [µM] | GFP response of strain Hg3 (E. coli MG1655/Hg3 [2]) | GFP response of strain Cd1 (E. coli MG1655/Cd1 [3]) | GFP response of strain Cu1 (E. coli MG1655/Cu1) | also measured
1 | [As] [Arsenic] | 1.00 | – | – | – | – | SNR after 6 h (E. coli MG1655/As3; 0.13 μM arsenic, 6 h induction, SNR > 2 = significant response): 33; Concentration Sensed in Microfluidic Device (E. coli MG1655/As3; arsR/parsR from E. coli genome, synthetic RBS): 0.13 µM
2 | [Cd] [Cadmium] | −0.13 | 0.44 | responding | responding | – | SNR after 6 h (E. coli MG1655/Cd1 [1]; 0.04 μM cadmium, 6 h induction, SNR > 2 = significant response): 17; Concentration Sensed in Microfluidic Device (E. coli MG1655/Cd1 [1]; cadC/pcadC from S. aureus plasmid, native RBS): 0.04 µM
3 | [Cr+6] [Chromium(VI)] | −0.22 | 1.25 | – | – | – | –
4 | [Cu] [Copper] | – | 5 | – | – | sensitively responding | copper concentration detected on-chip (GFP) [4]: 25 µM
5 | [Pb] [Lead] | −0.05 | 1.8 | – | responding at lesser magnitudes | responding at lesser magnitudes | –
6 | Mercury | −0.18 | 1 | sensitively responding | – | – | SNR after 6 h (E. coli MG1655/Hg3 [5]; 0.1 μM mercury, 6 h induction, SNR > 2 = significant response): 20; Concentration Sensed in Microfluidic Device (E. coli MG1655/Hg3 [5]; merR/pmerR from E. coli plasmid, synthetic RBS): 0.1 µM
